Reference: patent US20260199369A1, “COMPOUNDS FOR THE TREATMENT OF NEUROMUSCULAR DISORDERS” (NMD PHARMA A/S, priority 2022, published 2026)
Like-named read-outs stand apart in the source and are kept apart here.

Key:
CIC-1 ion channel = target: T1, CIC-1 ion channel (Rattus norvegicus, UniProt P35524); test: Electrophysiological measurement of compound inhibition of CIC-1 in rat muscle (Gm, three micro-electrodes technique); type: cell-based; conditions: Gm in fibres of whole rat soleus muscle, four increasing compound concentrations; read-out: Potency Range (EC50, inhibition of CIC-1 ion channel)
T1 construct: from tissue; host or cells: whole soleus muscle of 12-14 week old Wistar rats
T1 sequence (P35524 1-994): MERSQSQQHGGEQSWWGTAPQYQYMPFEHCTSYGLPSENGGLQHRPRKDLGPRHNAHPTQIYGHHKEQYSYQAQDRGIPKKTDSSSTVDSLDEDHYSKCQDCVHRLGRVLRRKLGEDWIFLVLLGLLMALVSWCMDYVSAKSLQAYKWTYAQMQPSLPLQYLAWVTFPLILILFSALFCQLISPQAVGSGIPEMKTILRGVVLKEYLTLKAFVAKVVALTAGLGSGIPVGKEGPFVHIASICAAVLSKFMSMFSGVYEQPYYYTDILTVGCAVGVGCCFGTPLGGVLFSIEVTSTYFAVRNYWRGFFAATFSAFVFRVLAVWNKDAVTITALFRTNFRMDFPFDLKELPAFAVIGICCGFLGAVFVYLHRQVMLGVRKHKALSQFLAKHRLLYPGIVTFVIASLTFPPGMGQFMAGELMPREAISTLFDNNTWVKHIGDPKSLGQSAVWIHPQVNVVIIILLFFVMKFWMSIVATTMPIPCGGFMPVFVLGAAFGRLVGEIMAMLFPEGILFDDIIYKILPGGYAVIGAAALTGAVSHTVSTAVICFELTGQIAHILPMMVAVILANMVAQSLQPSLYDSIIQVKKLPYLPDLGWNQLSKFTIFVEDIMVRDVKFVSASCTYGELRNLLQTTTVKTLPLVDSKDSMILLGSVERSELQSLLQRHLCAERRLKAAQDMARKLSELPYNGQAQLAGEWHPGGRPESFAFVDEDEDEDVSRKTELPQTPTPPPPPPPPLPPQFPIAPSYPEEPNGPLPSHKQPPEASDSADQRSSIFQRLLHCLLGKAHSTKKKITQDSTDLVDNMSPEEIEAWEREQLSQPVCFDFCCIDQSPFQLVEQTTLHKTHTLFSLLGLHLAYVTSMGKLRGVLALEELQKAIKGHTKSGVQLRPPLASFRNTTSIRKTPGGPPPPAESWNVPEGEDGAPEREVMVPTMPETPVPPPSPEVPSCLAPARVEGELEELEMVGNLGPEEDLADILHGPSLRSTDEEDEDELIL
Method: Apparent CIC-1 affinity was reported by the concentration of compound at which 50% of the compound's full inhibition of CIC-1 was observed (EC50) (see also WO2019/115777).
Experimentally, Gm was measured in individual fibres of whole rat soleus muscles using a three micro-electrodes technique described in this example and in full detail elsewhere (Riisager et al., Determination of cable parameters in skeletal muscle fibres during repetitive firing of action potentials. Journal of Physiology, 2014, 592, 4417-4429). Briefly, intact rat soleus muscles were dissected out from 12-14 week old Wistar rats and placed in an experimental chamber that was perfused with a standard Krebs Ringer solution containing 122 mM NaCl, 25 mM NaHCO3, 2.8 mM KCl, 1.2 mM KH2PO4, 1.2 mM MgSO4, 1.3 mM CaCl2), 5.0 mM D-glucose. During experiments, the solution was kept at approx. 30° C. and continuously equilibrated with a mixture of 95% O2 and 5% CO2, pH ~7.4. The experimental chamber was placed in Nikon upright microscope that was used to visualize individual muscle fibres and the three electrodes (glass pipettes filled with 2 M potassium citrate). For Gm measurements, the electrodes were inserted into the same fibre with known inter-electrode distances of 0.35-0.5 mm (V1-V2, X1) and 1.1-1.5 mm (V1-V3, X3). The membrane potential of the impaled muscle fibre was recorded by all electrodes. Two of the electrodes were furthermore used to inject 50 ms current pulses of −30 nA. […] The steady state voltage deflection at each distance was divided by the magnitude of current injected (−30 nA) and the resulting transfer resistances were plotted against inter-electrode distance and the data was fitted to a mono-exponential function from which Gm could be calculated using linear cable theory.
To establish a dose response relationship, Gm was first determined in 10 muscle fibres in the absence of compound and then at four increasing compound concentrations with Gm determinations in 5-10 fibres at each concentration. The average Gm values at each concentration were plotted against compound concentration and the data was fitted to sigmoidal function to obtain an EC50 value.

[1] = tested on: isolated rat soleus muscles; test: Measurement of force in an in vitro model: recovery of contractile force of isolated rat soleus nerve-muscle preparation after tubocurarine; conditions: 40 min, read-out: Point increase (%): percentage increase of initial force that was restored
Method: The current disclosure relates to compounds that inhibit CIC-1 ion channels and increase muscle excitability and thereby improve muscle function in clinical conditions where muscle activation is failing. Such conditions result in loss of contractile function of skeletal muscle, weakness and excessive fatigue. In this series of experiments the compounds were tested for their ability to restore contractile function of isolated rat muscle when the neuromuscular transmission had been compromised akin to neuromuscular disorders.
Experimentally, soleus muscles from 4-5 wk old rats were isolated with the motor nerve remaining attached. The nerve-muscle preparations were mounted in experimental setups that enabled electrical stimulation of the motor nerve. Stimulation of the motor nerve led to activation of the muscle fibres and ensuing force production that was recorded. The nerve-muscle preparations were also in these experiments incubated in the standard Krebs Ringer (see example 15) and the solution was heated to 30° C. and continuously equilibrated with a mixture of 95% O2 and 5% CO2, pH ~7.4.
After mounting the nerve-muscle preparation in the experimental setup, the contractile function of the muscle was initially assessed under the control conditions. Sub-maximal concentration of tubocurarine (115 nM), an acetylcholine receptor antagonist, was then added to the experimental bath to impose partial inhibition of the ability of the motor nerve to activate the muscle fibres. The experimental condition mimics the failing neuromuscular transmission in a range of neuromuscular disorders. After addition of tubocurarine the contractile force declined over the next 90 minutes to 10-50% of the control force. The test compound was then added to obtain the required compound concentration in the bath and the contractile force recovered was measured. To quantify the ability of the compound to restore force the percentage of the initial force that was restored was determined after 40 mins of compound exposure and the point increase is reported in Tables 3 to 7.

[2] = 10 μM of test compound, tubocurarine 115 nM, after 40 mins of compound exposure

Row | EC50 (CIC-1 ion channel) [nM] | SMILES | activation at 10 µM [1, 2] [%] | activation at 50 µM ([1]; 50 μM of test compound, tubocurarine 115 nM, after 40 mins of compound exposure) [%] | activation at 10 µM [1] [%] | activation at 25 µM ([1]; 25 μM of test compound, tubocurarine 115 nM, after 40 mins of compound exposure) [%]
1 | 200 to 1000 | COc1ccc(CN2CCOc3cc(Cl)c(F)c(C(=O)O)c32)cc1 [Compound A-58, 7-Chloro-6-fluoro-4-[(p-methoxyphenyl)methyl]-3,4-dihydro-2H-1,4-benzoxazine-5-carboxylic acid] | 35 |  |  | 
2 | 1000 to 5000 | CN1CCN(C)c2c1cc(Cl)c(F)c2C(=O)O [Compound A-8, 7-Chloro-6-fluoro-1,4-dimethyl-1,2,3,4-tetrahydroquinoxaline-5-carboxylic acid] | 26 |  |  | 
3 | 5000 to 15000 | COc1c(Cl)cc2c(c1C(=O)O)OCCO2 [Compound A-1, 7-Chloro-6-methoxy-2,3-dihydro-1,4-benzodioxine-5-carboxylic acid] |  | 31 |  | 
4 | 1000 to 5000 | CN1CCCOc2c1cc(Cl)c(F)c2C(=O)O [Compound A-13, 7-Chloro-8-fluoro-5-methyl-2,3,4,5-tetrahydro-1,5-benzoxazepine-9-carboxylic acid] | 30 |  |  | 
5 | 200 to 1000 | O=C(O)c1c(F)c(Cl)cc2c1N(Cc1ccsc1)CCO2 [Compound A-54, 7-Chloro-6-fluoro-4-[(thiophen-3-yl)methyl]-3,4-dihydro-2H-1,4-benzoxazine-5-carboxylic acid] | 28 |  |  | 
6 | 5000 to 15000 | O=C(O)c1c(F)c(Cl)cc2c1OCCN2 [Compound A-6, 6-Chloro-7-fluoro-3,4-dihydro-2H-1,4-benzoxazine-8-carboxylic acid] | 19 |  |  | 
7 | 1000 to 5000 | CCCN1CCOc2c1cc(Cl)c(F)c2C(=O)O [Compound A-21, 6-Chloro-7-fluoro-4-propyl-3,4-dihydro-2H-1,4-benzoxazine-8-carboxylic acid] |  |  |  | 29
8 | 1000 to 5000 | CN1CCSc2c1cc(Cl)c(F)c2C(=O)O [Compound A-19, 6-chloro-7-fluoro-4-methyl-3,4-dihydro-2H-1,4-benzothiazine-8-carboxylic acid] | 28 |  |  | 
9 | 200 to 1000 | Cc1ccc(CN2CCOc3cc(Cl)c(F)c(C(=O)O)c32)cc1 [Compound A-60, 7-Chloro-6-fluoro-4-[(p-tolyl)methyl]-3,4-dihydro-2H-1,4-benzoxazine-5-carboxylic acid] | 17 |  |  | 

Row | SMILES | EC50 (CIC-1 ion channel) [nM] | activation at 10 µM [1, 2] [%] | activation at 50 µM ([1]; 50 μM of test compound, tubocurarine 115 nM, after 40 mins of compound exposure) [%] | activation at 10 µM [1] [%] | activation at 25 µM ([1]; 25 μM of test compound, tubocurarine 115 nM, after 40 mins of compound exposure) [%]
10 | COc1c(F)cc2c(c1C(=O)O)OCCN2C [Compound A-30, 6-Fluoro-7-methoxy-4-methyl-3,4-dihydro-2H-1,4-benzoxazine-8-carboxylic acid] | 200 to 1000 |  |  | 39 | 
11 | CN1CCOc2cc(Cl)c(F)c(C(=O)O)c21 [Compound A-3, 7-Chloro-6-fluoro-4-methyl-3,4-dihydro-2H-1,4-benzoxazine-5-carboxylic acid] | 1000 to 5000 |  |  | 41 | 
